In patent US20260125359A1, “HETEROARYL COMPOUNDS AS MULTI-TARGET PROTEIN KINASE INHIBITORS” (FUJIAN HAIXI PHARMACEUTICALS CO., LTD., priority 2023, published 2026):

Test system: M-NFS-60 cells
Experiment: M-NFS-60 cell in vitro assay (CCK, 48 h, M-CSF factor medium)
Type: cell-based
Details: M-NFS-60 cells; read-out: M-NFS-60cellassay IC50
Description: To determine the inhibitory activity of compounds on M-NFS-60 cells.
• M-NFS-60 cell line (ATCC, Cat. No.: CRL-1838) • RPMI-1640 medium (Gibco, domestic subpackage, Cat. No.: C11875500BT) • Recombinant Mouse CSF1/M-CSF (Sino Biological Inc., Cat. No.: 51112-MNAH) • PAN/Serum (BioTECH, Cat. No.: P30-2602) • Trypsin/0.05% Trypsin-EDTA (Gibco, Cat. No.: 25300-062) • 0.4% Trypan Blue (Sigma, Cat. No.: T8154-20 ml) • Penicillin-Streptomycin (Hyclone, Cat. No.: SV30010) • DMSO (Solarbio, Cat. No.: D8371) • PBS (Solarbio, Cat. No.: P1020) • CCK (AbMole BioScience, Cat. No.: M4839-500Tests)
• 1) M-CSF factor stock solution: take 10 μg of powdered m-CSF factor, add 0.4 ml of saline, formulate 25 ug/ml and store at −80° C. • 2) M-CSF factor (25 ng/ml) medium: • 1640 (Gibco)+10% PAN+100×Penicillin-Streptomycin+100×M-CSF stock solution • 3) Complete medium: • 1640 (Gibco)+10% PAN+100×Penicillin-Streptomycin • 4) Compound preparation: 2-3 mg of the compound was added to DMSO to formulate a 30 mM stock solution, −80° C. refrigerator storage
• 1) Cell resuscitation: the frozen cells in the cryovial were thawed rapidly by shaking in a 37° C. water bath, then 4 mL of medium was added. After mixing evenly, they were centrifuged at 125×g for 5 min, and the supernatant was discarded. The cells were resuspended and transferred to the culture flasks, and were cultured in a 5% CO2 fully saturated humidity incubator. • 2) Cell passaging: M-NFS-60 cells are semi-suspension cells, which were collected directly in a 15 mL centrifuge tube, centrifuged at 125×g for 5 min. and the supernatant was discarded. The cells were resuspended and passaged into new culture flasks at a ratio of 1:5 to 1:10. • 3) After the newly resuscitated cells were passaged 1-2 times for cell stabilization, compound inhibition assays were started when the cells were in the logarithmic growth phase. • (a) Cell collection and counting: the same as the cell passaging step, centrifuge in two tubes, one tube with M-CSF factor medium to resuspend the cells, the other tube with complete medium to resuspend the cells. Take 10 μL of cell suspension in each tube, and count the cells by Tepan blue staining. • (b) Dilute the cell solution according to the concentration of inoculated cells respectively, the concentration of M-NFS-60 cells inoculated with factor was 5.56×10^4 cells/mL, and the concentration of inoculated without factor was 5×10^4 cells/mL. • (c) Seed plate: 384 well plate inoculated with M-NFS-60 cells, 36 uL/well, triplicate wells, the number of inoculated cells was equivalent to 2000 cells/well, set with blank control, factor free negative control, normal control, DMSO control and experimental wells. The cells were placed in a 5% CO2 fully saturated humidity incubator for 4 h. • (d) Sampling compounds: 96 well plates were used for compound preparation. The compound solution prepared in advance was diluted to corresponding gradient concentration with DMSO. An appropriate amount of the diluted solution in the previous step was added to an equal volume of factor containing medium. The 96 well plates were centrifuged at 1000 rpm for 5 min, which played the role of defoaming and spinning down droplets and condensation. Remove the 384 well plate from the incubator, add the diluted compound solution into each well sequentially, 4 μL/well; DMSO wells and normal wells were added with corresponding factor containing medium, 4 μL/well. Then it was put into CO2 incubator for 48 h. • (e) After incubation for 48 h, CCK was added to each well, 4 uL, and the plates were placed in the incubator for another 2 h, and then the OD (optical density) value at 450 nm was measured by microplate reader.
The IC50 values for each test compound were fitted using professional graphing and analysis software.

O=C(Nc1cccc(C2CC2)c1)c1cccc2c1CC[C@@H]2Nc1cncc(Br)c1 [Compound 10, (S)-1-((5-bromopyridin-3-yl)amino)-N-(3-cyclopropylphenyl)-2,3-dihydro-1H-indene-4-carboxamide]
IC50: 50 to 200 nM

Cc1cccc(NC(=O)c2cccc3c2CC[C@@H]3Nc2cncc(N3CCN(C)CC3)n2)c1 [Compound 34, (S)-1-((6-(4-methylpiperazin-1-yl)pyrazin-2-yl)amino)-N-(m-tolyl)-2,3-dihydro-1H-indene-4-carboxamide]
IC50: 50 to 200 nM

Cn1cc2ncc(N[C@H]3CCc4c(Nc5noc(C6(C)CCC6)n5)cccc43)cc2n1 [Compound 93n]
IC50: < 50 nM

Cc1cc(C(=O)Nc2cccc3c2CC[C@@H]3Nc2cc(-c3cnn(C)c3)cnc2N)ccc1F [Compound 6, (S)—N-(1-((2-amino-5-(1-methyl-1H-pyrazol-4-yl)pyridin-3-yl)amino)-2,3-dihydro-1H-inden-4-yl)-4-fluoro-3-methylbenzamide]
IC50: 50 to 200 nM

Cn1ncc2ncc(N[C@H]3CCc4c(Nc5cc(C(C)(C)C)on5)cccc43)cc21 [Compound 91a]
IC50: < 50 nM

Cn1ncc2ncc(O[C@H]3CCc4c(C(=O)Nc5cncc(C6CC6)c5)cccc43)cc21 [Compound 76at]
IC50: < 50 nM

Cn1cc(-c2cncc(N[C@H]3CCc4c(Nc5cc(C(C)(C)C(F)(F)F)on5)cccc43)c2)cn1 [Compound 42p]
IC50: < 50 nM

Cn1cc2ncc(N[C@H]3CCc4c(CNc5cccc(C6CC6)c5)cccc43)cc2n1 [Compound 96a]
IC50: 50 to 200 nM

Cn1cc(-c2cncc(O[C@H]3CCc4c(C(=O)Nc5cccc(C(C)(C)N)c5)cccc43)c2)cn1 [Compound 19m]
IC50: 200 to 500 nM

Cn1cc(-c2cncc(N[C@H]3CCc4c(C(=O)Nc5nn(C)c6ccccc56)cccc43)c2)cn1 [Compound 14ag]
IC50: < 50 nM

Cc1cccc(NC(=O)c2cccc3c2CC[C@@H]3Nc2cncc(Cl)n2)c1 [Compound 33c, (S)-1-((6-chloropyrazin-2-yl)amino)-N-(m-tolyl)-2,3-dihydro-1H-indene-4-carboxamide]
IC50: < 50 nM

Cn1cc2ncc(N[C@H]3CCc4c(Nc5noc(C6(C(F)(F)F)CCCC6)n5)cccc43)cc2n1 [Compound 93l]
IC50: < 50 nM

Cc1cccc(C(=O)Nc2c(F)ccc3c2CC[C@@H]3Nc2cncc(-c3cnn(C)c3)c2)c1 (stereo in doubt) [Compound 43, N-(5-fluoro-1-((5-(1-methyl-1H-pyrazol-4-yl)pyridin-3-yl)amino)-2,3-dihydro-1H-inden-4-yl)-3-methylbenzamide]
IC50: 200 to 500 nM

CN(C)Cc1cc(NC(=O)c2cccc3c2CC[C@@H]3N(C)c2cnc3cnn(C)c3c2)ccc1F [Compound 80f]
IC50: 50 to 200 nM

Cn1cc(-c2cncc(N[C@H]3CCc4c(NC(=O)NC5CCC(F)(F)CC5)cccc43)n2)cn1 [Compound 65b]
IC50: 50 to 200 nM

Cn1ncc2ccc(N[C@H]3CCc4c(C(=O)Nc5cccc(C6CC6)c5)cccc43)cc21 [Compound 74b]
IC50: > 500 nM

COc1cc(NC(=O)c2cccc3c2CC[C@@H]3Oc2cnc3cnn(C)c3c2)ccc1F [Compound 76ad]
IC50: < 50 nM

Cn1cc(-c2cncc(N[C@H]3CCc4c(C(=O)Nc5cncc(Cl)c5)cccc43)n2)cn1 [Compound 27k]
IC50: < 50 nM

Cc1cccc(C(=O)Nc2cccc3c2CC(F)C3Nc2cncc(-c3cnn(C)c3)c2)c1 (centres unmarked) [Compound 44c]
IC50: 50 to 200 nM

CN(C)Cc1ccc(NC(=O)c2cccc3c2CC[C@@H]3Oc2cnc3cnn(C)c3c2)cc1 [Compound 76aa]
IC50: 50 to 200 nM

Cn1cc2ncc(N[C@H]3CCc4c(NC(=O)c5cccc(C6CC6)c5)cccc43)cc2n1 [Compound 81, (S)-3-cyclopropyl-N-(1-((2-methyl-2H-pyrazolo[4,3-b]pyridin-6-yl)amino)-2,3-dihydro-1H-inden-4-yl)benzamide]
IC50: < 50 nM

Cn1ncc2ncc(O[C@H]3CCc4c(C(=O)Nc5ccc6c(c5)OC(F)(F)O6)cccc43)cc21 [Compound 76ae]
IC50: < 50 nM

Cn1cc2ncc(N[C@H]3CCc4c(Nc5cc(C6(C)CCC6)on5)cccc43)cc2n1 [Compound 91k]
IC50: < 50 nM
